US11098032B2, “Pyran dervatives as CYP11A1 (cytochrome P450 monooxygenase 11A1) inhibitors” (ORION CORPORATION, priority 2016, dated 2021)

Target: T1, CYP11A1 (Homo sapiens, UniProt P05108)
T1 construct: human H295R adrenocortical carcinoma cell line was used as source of enzyme; endogenous in cells; host or cells: H295R human adrenocortical carcinoma cells
T1 sequence (P05108 40-521): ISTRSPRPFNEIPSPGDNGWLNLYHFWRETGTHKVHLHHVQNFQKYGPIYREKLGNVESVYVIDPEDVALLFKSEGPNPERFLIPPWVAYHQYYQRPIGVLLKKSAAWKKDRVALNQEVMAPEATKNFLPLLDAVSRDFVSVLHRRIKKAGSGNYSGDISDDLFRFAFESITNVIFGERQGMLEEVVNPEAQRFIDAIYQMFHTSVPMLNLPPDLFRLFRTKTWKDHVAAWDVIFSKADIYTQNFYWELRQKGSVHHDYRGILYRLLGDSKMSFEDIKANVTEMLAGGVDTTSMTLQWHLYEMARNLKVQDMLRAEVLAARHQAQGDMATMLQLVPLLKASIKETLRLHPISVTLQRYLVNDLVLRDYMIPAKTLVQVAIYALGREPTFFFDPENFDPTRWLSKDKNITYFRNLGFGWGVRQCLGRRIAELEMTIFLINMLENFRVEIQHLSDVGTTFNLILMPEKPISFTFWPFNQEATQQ
Assay: CYP11A1 inhibition: modified isocaproic acid release assay (IARA) in H295R cells
Format: cell-based
Details: human H295R adrenocortical carcinoma cells treated three days, 3 nM [24,25-3H]-labelled cholesterol, 1% DMSO, 10 concentrations in duplicates; read-out: IC50 of the test compounds on CYP11A1 inhibition
Method: The ability of the test compounds to inhibit conversion of cholesterole to pregnenolone and isocaproic acid was measured by modification of isocaproic acid release assay (IARA) described by Ruangwises et. al. (Biology of Reproduction 1991; 45(1):143-50) except that human H295R adrenocortical carcinoma cell line was used as source of enzyme and extraction was done with dextran-coated charcoal suspension (Isomaa, V. et al., Endocrinology 1982; 111(3):833-843). […] To determine the half maximal inhibitory concentration (IC50) of the test compounds on CYP11A1 inhibition, the cells were treated for three days with increasing concentrations of the test compounds in the presence of 3 nM [24,25-3H]-labelled cholesterol (American Radiolabelled Chemicals). The final DMSO concentration was 1%. Cell culture medium was extracted with dextran-coated charcoal suspension and the radiolabelled isocaproic acid was determined by mixing 100 μl of supernatant fraction in 200 μl of scintillation fluid (OptiPhase SuperMix, Perkin Elmer). Radioactivity was measured using a Microbeta scintillation counter (1450 MicroBeta Trilux, Wallac). All the test compounds were studied at 10 concentrations in duplicates.

SMILES	IC50 [nM]
COC(=O)c1ccc(COc2coc(CN3Cc4ccccc4C3)cc2=O)cc1 [Compound 60, Methyl 4-(((6-(isoindolin-2-ylmethyl)-4-oxo-4H-pyran-3-yl)oxy)methyl)benzoate]	301 to 2000
CN(C)C(=O)c1ccc(COc2coc(CN3Cc4ccccc4C3)cc2=O)c(F)c1 [Compound 61, 3-Fluoro-4-(((6-(isoindolin-2-ylmethyl)-4-oxo-4H-pyran-3-yl)oxy)methyl)-N,N-dimethylbenzamide]	150 to 300
CNC(=O)c1ccc(COc2coc(CN3Cc4ccccc4C3)cc2=O)cc1 [Compound 62, 4-(((6-(Isoindolin-2-ylmethyl)-4-oxo-4H-pyran-3-yl)oxy)methyl)-N-methylbenzamide]	301 to 2000
CS(=O)(=O)c1ccc(COc2coc(CN3Cc4ccc(F)cc4C3)cc2=O)cc1 [Compound 63, 2-((5-Fluoroisoindolin-2-yl)methyl)-5-((4-(methylsulfonyl)benzyl)oxy)-4H-pyran-4-one]	150 to 300
CS(=O)(=O)c1ccc(COc2coc(CN3Cc4ccc(Cl)cc4C3)cc2=O)cc1 [Compound 64, 2-((5-Chloroisoindolin-2-yl)methyl)-5-((4-(methylsulfonyl)benzyl)oxy)-4H-pyran-4-one]	150 to 300
O=c1cc(CN2Cc3ccccc3C2)occ1OCC1CCCCC1 [Compound 65, 5-(Cyclohexylmethoxy)-2-(isoindolin-2-ylmethyl)-4H-pyran-4-one]	< 150
CS(=O)(=O)c1ccc(COc2coc(CN3Cc4cc5c(cc4C3)OCO5)cc2=O)cc1 [Compound 66, 2-((5,7-Dihydro-6H-[1,3]dioxolo[4,5-f]isoindol-6-yl)methyl)-5-((4-(methyl-sulfonyl)benzyl)oxy)-4H-pyran-4-one]	301 to 2000
O=c1cc(CN2Cc3ccccc3C2)occ1OCC1CCOCC1 [Compound 67, 2-(Isoindolin-2-ylmethyl)-5-((tetrahydro-2H-pyran-4-yl)methoxy)-4H-pyran-4-one]	150 to 300
CS(=O)(=O)c1ccc(COc2coc(CN3Cc4ccc([N+](=O)[O-])cc4C3)cc2=O)cc1 [Compound 68, 5-((4-(Methylsulfonyl)benzyl)oxy)-2-((5-nitroisoindolin-2-yl)methyl)-4H-pyran-4-one]	150 to 300
CC(=O)NC(C)(C)c1ccc(COc2coc(CN3Cc4ccccc4C3)cc2=O)cc1 [Compound 69, N-(2-(4-(((6-(Isoindolin-2-ylmethyl)-4-oxo-4H-pyran-3-yl)oxy)methyl)phenyl)-propan-2-yl)acetamide]	150 to 300
O=c1cc(CN2Cc3ccc(C(F)(F)F)cc3C2)occ1OCC1CCN(S(=O)(=O)C2COC2)CC1 [Compound 69a, 5-((1-(Oxetan-3-ylsulfonyl)piperidin-4-yl)methoxy)-2-((5-(trifluoromethyl)-isoindolin-2-yl)methyl)-4H-pyran-4-one]	< 150
CC(=O)N(C)S(=O)(=O)c1ccc(COc2coc(CN3Cc4ccccc4C3)cc2=O)cc1 [Compound 70, N-((4-(((6-(Isoindolin-2-ylmethyl)-4-oxo-4H-pyran-3-yl)oxy)methyl)phenyl)-sulfonyl)-N-methylacetamide]	< 150
N=S(=O)(c1ccc(COc2coc(CN3Cc4ccccc4C3)cc2=O)cc1)C1CCC1 (centres unmarked) [Compound 71, 5-((4-(Cyclobutanesulfonimidoyl)benzyl)oxy)-2-(isoindolin-2-ylmethyl)-4H-pyran-4-one]	< 150
O=c1cc(CN2Cc3ccccc3C2)occ1OCc1ccc(S(=O)(=O)C2CC2)cc1 [Compound 72, 5-((4-(Cyclopropylsulfonyl)benzyl)oxy)-2-(isoindolin-2-ylmethyl)-4H-pyran-4-one]	< 150
CC(C)CS(=O)(=O)c1ccc(COc2coc(CN3Cc4ccccc4C3)cc2=O)cc1 [Compound 73, 5-((4-(Isobutylsulfonyl)benzyl)oxy)-2-(isoindolin-2-ylmethyl)-4H-pyran-4-one]	< 150
CS(=N)c1ccc(COc2coc(CN3Cc4ccc(C(F)(F)F)cc4C3)cc2=O)cc1 (centres unmarked) [Compound 74, 5-((4-(S-methylsulfinimidoyl)benzyl)oxy)-2-((5-(trifluoromethyl)isoindolin-2-yl)methyl)-4H-pyran-4-one]	< 150

SMILES	IC50 [nM]
O=c1cc(CN2Cc3ccccc3C2)occ1OCc1ccc(C(F)(F)F)nc1 [Compound 75, 2-(Isoindolin-2-ylmethyl)-5-((6-(trifluoromethyl)pyridin-3-yl)methoxy)-4H-pyran-4-one]	301 to 2000
COc1ccc(COc2coc(CN3Cc4ccccc4C3)cc2=O)cn1 [Compound 76, 2-(Isoindolin-2-ylmethyl)-5-((6-methoxypyridin-3-yl)methoxy)-4H-pyran-4-one]	301 to 2000
CC1c2ccccc2CN1Cc1cc(=O)c(OCc2ccc(C(=O)N(C)C)cc2)co1 (centres unmarked) [Compound 77, N,N-Dimethyl-4-(((6-((1-methylisoindolin-2-yl)methyl)-4-oxo-4H-pyran-3-yl)oxy)methyl)benzamide]	301 to 2000
CN(C)C(=O)c1ccc(COc2coc(CN3CCc4ccccc4C3)cc2=O)cc1F [Compound 78, 4-(((6-((3,4-Dihydroisoquinolin-2(1H)-yl)methyl)-4-oxo-4H-pyran-3-yl)oxy)-methyl)-2-fluoro-N,N-dimethylbenzamide]	301 to 2000
CNC(=O)c1ccc(COc2coc(CN3Cc4ccccc4C3)cc2=O)cc1F [Compound 79, 2-Fluoro-4-(((6-(isoindolin-2-ylmethyl)-4-oxo-4H-pyran-3-yl)oxy)methyl)-N-methylbenzamide]	301 to 2000
CNC(=O)c1ccc(COc2coc(CN3CCc4ccccc4C3)cc2=O)cc1F [Compound 80, 4-(((6-((3,4-Dihydroisoquinolin-2(1H)-yl)methyl)-4-oxo-4H-pyran-3-yl)oxy)-methyl)-2-fluoro-N-methylbenzamide]	301 to 2000
C[S+]([O-])c1ccc(COc2coc(CN3Cc4ccccc4C3)cc2=O)cc1 (centres unmarked) [Compound 81, 2-(Isoindolin-2-ylmethyl)-5-((4-(methylsulfinyl)benzyl)oxy)-4H-pyran-4-one]	150 to 300
CSc1ccc(COc2coc(CN3Cc4ccccc4C3)cc2=O)cc1 [Compound 82, 2-(Isoindolin-2-ylmethyl)-5-((4-(methylthio)benzyl)oxy)-4H-pyran-4-one]	150 to 300
CN(C)C(=O)c1ccc(COc2coc(CN3Cc4cc(F)c(F)cc4C3)cc2=O)cc1 [Compound 82a, 4-(((6-((5,6-Difluoroisoindolin-2-yl)methyl)-4-oxo-4H-pyran-3-yl)oxy)methyl)-N,N-dimethylbenzamide]	150 to 300
CS(C)(=O)=NC(=O)c1ccc(COc2coc(CN3Cc4ccccc4C3)cc2=O)cc1 [Compound 83, 4-({[6-(1,3-Dihydro-2H-isoindol-2-ylmethyl)-4-oxo-4H-pyran-3-yl]oxy}methyl)-N-[dimethyl(oxido)-λ^6-sulfanylidene]benzamide]	< 150
CS(C)(=O)=NC(=O)c1ccc(COc2coc(CN3Cc4ccc(F)cc4C3)cc2=O)cc1 [Compound 84, N-[Dimethyl(oxido)-λ^6-sulfanylidene]-4-[({6-[(5-fluoro-1,3-dihydro-2H-iso-indol-2-yl)methyl]-4-oxo-4H-pyran-3-yl}oxy)methyl]benzamide]	< 150
CS(=N)c1ccc(COc2coc(CN3Cc4ccccc4C3)cc2=O)cc1 (centres unmarked) [Compound 85, 2-(Isoindolin-2-ylmethyl)-5-((4-(S-methylsulfinimidoyl)benzyl)oxy)-4H-pyran-4-one]	150 to 300
CS(=N)(=O)c1ccc(COc2coc(CN3Cc4ccccc4C3)cc2=O)cc1 (centres unmarked) [Compound 86, 2-(Isoindolin-2-ylmethyl)-5-((4-(S-methylsulfonimidoyl)benzyl)oxy)-4H-pyran-4-one]	150 to 300
CS(=N)(=O)c1ccc(COc2coc(CN3CCc4ccccc4C3)cc2=O)cc1 (centres unmarked) [Compound 87, 2-((3,4-Dihydroisoquinolin-2(1H)-yl)methyl)-5-((4-(S-methylsulfonimidoyl)-benzyl)oxy)-4H-pyran-4-one]	301 to 2000
CS(=N)(=O)c1ccc(COc2coc(CN3Cc4ccc(F)cc4C3)cc2=O)cc1 (centres unmarked) [Compound 88, 2-((5-Fluoroisoindolin-2-yl)methyl)-5-((4-(S-methylsulfonimidoyl)benzyl)oxy)-4H-pyran-4-one]	150 to 300
CS(=N)(=O)c1ccc(COc2coc(CN3Cc4ccc(C(F)(F)F)cc4C3)cc2=O)cc1 (centres unmarked) [Compound 89, 5-((4-(S-Methylsulfonimidoyl)benzyl)oxy)-2-((5-(trifluoromethyl)isoindolin-2-yl)methyl)-4H-pyran-4-one]	< 150
